{"source": "patent US12351570B2", "about": "(MERCK PATENT GMBH, priority 2018, dated 2025)", "key": {"SNU398 cells": {"tested_on": "SNU398 cells", "assay": "Extracellular lactate production inhibition after 4 h, SNU398", "details": "Homo sapiens, SNU-398, read-out: IC50 (SNU-398)", "protocol": "(§1) Extracellular Lactate Production Inhibition after 4 h\n(§2) Cells were plated in growth media supplemented with 10% FBS, followed by overnight recovery at 37° C., 5% CO2. […] Plates were then moved for 4 h incubation at 37° C., 5% CO2 with subsequent 20 μl media transfer to empty 384-well transparent plates. […] Plates were short-spun and measured kinetically in absorbance mode (530 nm, 12 min measurement time with 2-minute intervals between subsequent readouts at 30° C.). Differences in the signal between T8 min and T0min were normalized to vehicle (cells w/ 0.25% DMSO) and quasi-positive (LCIS buffer w/ 0.25% DMSO) controls and plotted against logarithmically-transformed test compound concentrations with fitting the 4-parameter model in GraphPad Prism software."}, "MDA-MB-231 cells": {"tested_on": "MDA-MB-231 cells", "assay": "Extracellular lactate production inhibition after 4 h, MDA-MB-231", "details": "Homo sapiens"}, "MIA PaCa-2 cells": {"tested_on": "MIA PaCa-2 cells", "assay": "Extracellular lactate production inhibition after 4 h, MIA PaCa-2", "details": "Homo sapiens, MIA PaCa-2, read-out: IC50 (MiaPACa)", "protocol": "as §1, §2"}, "[1]": {"details": "MDA-MB-231, read-out: IC50 (MDA-MB231)"}}, "note": "Where two headings read alike, the source gives them in different places.", "data": [{"smiles": "Cc1ccc2cccnc2c1S(=O)(=O)Nc1ccccc1C#Cc1cnc(C(=O)O)c2ccccc12", "note": "[Compound 208, 4-{2-[2-(7-methylquinoline-8-sulfonamido)phenyl]ethynyl}isoquinoline-1-carboxylic acid]", "values": [{"measurement": "IC50", "setting": "SNU398 cells", "result": "< 1000", "unit": "nM"}, {"measurement": "IC50", "setting": "MDA-MB-231 cells; MDA-MB-231", "result": "100 to 1000", "unit": "nM"}, {"measurement": "IC50", "setting": "MDA-MB-231 cells; [1]", "result": "< 1000", "unit": "nM"}, {"measurement": "IC50", "setting": "MIA PaCa-2 cells", "result": "< 1000", "unit": "nM"}]}, {"smiles": "COc1ccc(S(=O)(=O)Nc2ccccc2C#Cc2ccc(C(=O)N(C)C)nc2)c2ncccc12", "note": "[Compound 217]", "values": [{"measurement": "IC50", "setting": "SNU398 cells", "result": "< 1000", "unit": "nM"}, {"measurement": "IC50", "setting": "MDA-MB-231 cells; MDA-MB-231", "result": "1000 to 100000", "unit": "nM"}, {"measurement": "IC50", "setting": "MDA-MB-231 cells; [1]", "result": "< 1000", "unit": "nM"}, {"measurement": "IC50", "setting": "MIA PaCa-2 cells", "result": "< 1000", "unit": "nM"}]}, {"smiles": "CS(=O)(=Nc1ccccc1C#Cc1ccc(C(=O)O)nc1)c1cccc(F)c1", "note": "(stereo not drawn) [Compound 436, 5-[2-(2-{[(3-fluorophenyl)(methyl)oxo-λ6-sulfanylidene]amino}phenyl)ethynyl] pyridine-2-carboxylic acid]", "values": [{"measurement": "IC50", "setting": "MDA-MB-231 cells; MDA-MB-231", "result": "1000 to 100000", "unit": "nM"}]}, {"smiles": "CS(=O)(=Nc1ccccc1C#Cc1ccc(C(=O)O)nc1)c1ccccc1F", "note": "(stereo not drawn) [Compound 437, 5-[2-(2-{[(2-fluorophenyl)(methyl)oxo-λ6-sulfanylidene]amino}phenyl)ethynyl] pyridine-2-carboxylic acid]", "values": [{"measurement": "IC50", "setting": "MDA-MB-231 cells; MDA-MB-231", "result": "1000 to 100000", "unit": "nM"}]}, {"smiles": "Cc1ccccc1S(C)(=O)=Nc1ccccc1C#Cc1ccc(C(=O)O)nc1", "note": "(stereo not drawn) [Compound 438, 5-[2-(2-{[methyl(2-methylphenyl)oxo-λ6-sulfanylidene]amino}phenyl)ethynyl] pyridine-2-carboxylic acid]", "values": [{"measurement": "IC50", "setting": "MDA-MB-231 cells; MDA-MB-231", "result": "1000 to 100000", "unit": "nM"}]}, {"smiles": "O=C(O)c1ccc(C#Cc2ccccc2S(=O)(=O)Nc2ccccc2)cn1", "note": "[Compound 439, 5-{2-[2-(phenylsulfamoyl)phenyl]ethynyl} pyridine-2-carboxylic acid]", "values": [{"measurement": "IC50", "setting": "MDA-MB-231 cells; MDA-MB-231", "result": "1000 to 100000", "unit": "nM"}]}, {"smiles": "CN(c1ccccc1)S(=O)(=O)c1ccccc1C#Cc1ccc(C(=O)O)nc1", "note": "[Compound 440, 5-(2-{2-[methyl(phenyl)sulfamoyl]phenyl}-ethynyl)pyridine-2-carboxylic acid]", "values": [{"measurement": "IC50", "setting": "MDA-MB-231 cells; MDA-MB-231", "result": "1000 to 100000", "unit": "nM"}]}, {"smiles": "O=C(O)c1ncc(C#Cc2ccccc2NS(=O)(=O)c2cccc3c(Cl)ccnc23)c2ccccc12", "note": "[Compound 441, 4-{2-[2-(4-chloroquinoline-8-sulfonamido)phenyl]ethynyl}iso-quinoline-1-carboxylic acid]", "values": [{"measurement": "IC50", "setting": "MDA-MB-231 cells; MDA-MB-231", "result": "100 to 1000", "unit": "nM"}]}, {"smiles": "CCOc1ccc(S(=O)(=O)Nc2ccccc2C#Cc2cnc(C(=O)O)c3ccccc23)c2ncccc12", "note": "[Compound 442, 4-{2-[2-(5-ethoxyquinoline-8-sulfonamido)phenyl]ethynyl}iso-quinoline-1-carboxylic acid]", "values": [{"measurement": "IC50", "setting": "MDA-MB-231 cells; MDA-MB-231", "result": "10 to 100", "unit": "nM"}]}, {"smiles": "NCCOCCOCCOCCOc1ccnc2c(S(=O)(=O)Nc3ccccc3C#Cc3cnc(C(=O)O)c4ccccc34)cccc12", "note": "[Compound 443, 4-(2-{2-[4-(2-{2-[2-(2-aminoethoxy)ethoxy]ethoxy}ethoxy)quinoline-8-sulfonamido]phenyl}-ethynyl)isoquinoline-1-carboxylic acid]", "values": [{"measurement": "IC50", "setting": "MDA-MB-231 cells; MDA-MB-231", "result": "1000 to 100000", "unit": "nM"}]}, {"smiles": "Cc1ccc2cccc(S(=O)(=O)Nc3ccccc3C#Cc3cnc(C(=O)O)c4ccccc34)c2n1", "note": "[Compound 444, 4-{2-[2-(2-methylquinoline-8-sulfonamido)phenyl]ethynyl}iso-quinoline-1-carboxylic acid]", "values": [{"measurement": "IC50", "setting": "MDA-MB-231 cells; MDA-MB-231", "result": "1000 to 100000", "unit": "nM"}]}, {"smiles": "CCc1ccc2cccnc2c1S(=O)(=O)Nc1ccccc1C#Cc1cnc(C(=O)O)c2ccccc12", "note": "[Compound 445, 4-{2-[2-(7-ethylquinoline-8-sulfonamido)phenyl]ethynyl}iso-quinoline-1-carboxylic acid]", "values": [{"measurement": "IC50", "setting": "MDA-MB-231 cells; MDA-MB-231", "result": "1000 to 100000", "unit": "nM"}]}, {"smiles": "Cc1cc(C)c2cccnc2c1S(=O)(=O)Nc1ccccc1C#Cc1cnc(C(=O)O)c2ccccc12", "note": "[Compound 446, 4-{2-[2-(5,7-dimethylquinoline-8-sulfonamido)phenyl]ethynyl}iso-quinoline-1-carboxylic acid]", "values": [{"measurement": "IC50", "setting": "MDA-MB-231 cells; MDA-MB-231", "result": "100 to 1000", "unit": "nM"}]}, {"smiles": "CC(C)Oc1ccc(S(=O)(=O)Nc2ccccc2C#Cc2cnc(C(=O)O)c3ccccc23)c2ncccc12", "note": "[Compound 447, 4-(2-{2-[5-(propan-2-yloxy)quinoline-8-sulfonamido]phenyl}ethynyl)iso-quinoline-1-carboxylic acid]", "values": [{"measurement": "IC50", "setting": "MDA-MB-231 cells; MDA-MB-231", "result": "100 to 1000", "unit": "nM"}]}, {"smiles": "CS(=O)(=Nc1ccccc1C#Cc1cnc(C(=O)O)c2ccccc12)c1cccc2cccnc12", "note": "(stereo not drawn) [Compound 448, 4-[2-(2-{[methyl(oxo)(quinolin-8-yl)-λ6-sulfanylidene]amino}phenyl)ethynyl]-isoquinoline-1-carboxylic acid]", "values": [{"measurement": "IC50", "setting": "MDA-MB-231 cells; MDA-MB-231", "result": "100 to 1000", "unit": "nM"}]}, {"smiles": "COc1ccc(S(C)(=O)=Nc2ccccc2C#Cc2cnc(C(=O)O)c3ccccc23)cc1", "note": "(stereo not drawn) [Compound 449, 4-[2-(2-{[(4-methoxyphenyl)(methyl)oxo-λ6-sulfanylidene]amino}phenyl)ethynyl]-isoquinoline-1-carboxylic acid]", "values": [{"measurement": "IC50", "setting": "MDA-MB-231 cells; MDA-MB-231", "result": "1000 to 100000", "unit": "nM"}]}, {"smiles": "O=C(O)c1ccc(C#Cc2ccccc2S(=O)(=O)Nc2cccc3ccccc23)cn1", "note": "[Compound 450, 5-(2-{2-[(naphthalen-1-yl)sulfamoyl]phenyl}ethynyl)pyridine-2-carboxylic acid]", "values": [{"measurement": "IC50", "setting": "MDA-MB-231 cells; MDA-MB-231", "result": "1000 to 100000", "unit": "nM"}]}, {"smiles": "CCc1cc(C#Cc2ccccc2NS(=O)(=O)c2ccc(OC)c3cccnc23)cnc1C(=O)O", "note": "[Compound 451, 3-Ethyl-5-[2-(5-methoxy-quinoline-8-sulfonylamino)-phenylethynyl]-pyridine-2-carboxylic acid]", "values": [{"measurement": "IC50", "setting": "MDA-MB-231 cells; MDA-MB-231", "result": "10 to 100", "unit": "nM"}]}]}
